Reference: the NIST ThermoML archive (doi:10.1021/je400539h)

Assay: xn = mol fraction of the nth substance listed
Conditions: 101 kPa, Liquid

CCCCCCOC(C)=O [hexyl ethanoate] + C1COCCO1
Conditions | mass density [kg/m3] | speed of sound [m/s] | viscosity [mPa·s]
298.15 K, x1 = 0.0546 | 1015 | 1312 | 1.143
298.15 K, x1 = 0.1152 | 1000.7 | 1292 | 1.131
298.15 K, x1 = 0.1825 | 985.9 | 1280 | 1.119
298.15 K, x1 = 0.2572 | 970.6 | 1268 | 1.106
298.15 K, x1 = 0.3416 | 954.6 | 1256 | 1.096
298.15 K, x1 = 0.4094 | 942.8 | 1248 | 1.093
298.15 K, x1 = 0.4773 | 931.9 | 1240 | 1.088
298.15 K, x1 = 0.5836 | 916.5 | 1236 | 1.08
298.15 K, x1 = 0.7044 | 900.8 | 1236 | 1.077
298.15 K, x1 = 1 | 868.3 | 1236 | 1.071
303.15 K, x1 = 0.0546 | 1009 | 1300 | 1.076
303.15 K, x1 = 0.1152 | 994.8 | 1280 | 1.063
303.15 K, x1 = 0.1825 | 979.9 | 1268 | 1.049
303.15 K, x1 = 0.2572 | 964.6 | 1256 | 1.037
303.15 K, x1 = 0.3416 | 948.8 | 1244 | 1.026
303.15 K, x1 = 0.4094 | 937.1 | 1236 | 1.019
303.15 K, x1 = 0.4773 | 926.4 | 1228 | 1.014
303.15 K, x1 = 0.5836 | 911.1 | 1224 | 1.005
303.15 K, x1 = 0.7044 | 895.7 | 1224 | 0.997
303.15 K, x1 = 1 | 863.9 | 1216 | 0.982
308.15 K, x1 = 0.0546 | 1003.4 | 1288 | 0.987
308.15 K, x1 = 0.1152 | 988.9 | 1268 | 0.975
308.15 K, x1 = 0.1825 | 974 | 1256 | 0.962
308.15 K, x1 = 0.2572 | 958.8 | 1244 | 0.951
308.15 K, x1 = 0.3416 | 943.2 | 1232 | 0.942
308.15 K, x1 = 0.4094 | 931.7 | 1224 | 0.935
308.15 K, x1 = 0.4773 | 921.1 | 1216 | 0.93
308.15 K, x1 = 0.5836 | 906 | 1212 | 0.921
308.15 K, x1 = 0.7044 | 890.8 | 1212 | 0.913
308.15 K, x1 = 1 | 859.8 | 1196 | 0.898
313.15 K, x1 = 0.0546 | 996.8 | 1280 | 0.935
313.15 K, x1 = 0.1152 | 982.2 | 1256 | 0.924
313.15 K, x1 = 0.1825 | 967.3 | 1244 | 0.912
313.15 K, x1 = 0.2572 | 952.3 | 1232 | 0.9
313.15 K, x1 = 0.3416 | 937 | 1216 | 0.889
313.15 K, x1 = 0.4094 | 925.7 | 1208 | 0.88
313.15 K, x1 = 0.4773 | 915.2 | 1204 | 0.874
313.15 K, x1 = 0.5836 | 900.3 | 1200 | 0.864
313.15 K, x1 = 0.7044 | 885.2 | 1200 | 0.855
313.15 K, x1 = 1 | 855 | 1176 | 0.836

CCCCCCOC(C)=O [hexyl ethanoate] + C=COCCCC
x1 = 1
Conditions | mass density [kg/m3] | speed of sound [m/s] | viscosity [mPa·s]
298.15 K | 868.3 | 1236 | 1.071
303.15 K | 863.9 | 1216 | 0.982
308.15 K | 859.8 | 1196 | 0.899
313.15 K | 855 | 1176 | 0.836

C1CCOC1 [tetrahydrofuran] + CCCCCCOC(C)=O
x2 = 0
Conditions | mass density [kg/m3] | speed of sound [m/s] | viscosity [mPa·s]
298.15 K | 881.5 | 1268 | 0.45
303.15 K | 878.7 | 1248 | 0.439
308.15 K | 873 | 1228 | 0.429
313.15 K | 866.9 | 1212 | 0.404
